Measurements reported in patent US6579849B2, “Antibiotic peptides from bovine milk” (HaemoPep Pharma GmbH, priority 1998, dated 2003).
Read-outs that look alike come from different tables or passages of the source.

How the values were obtained:
[1] = test system: B. subtilis; assay: Preincubation experiment (determination of CFU); type: cell-based; settings: incubated at 37° C. for 120 min, interpolated from FIG. 3
Procedure: (§1) Exponentially grown bacteria with a density corresponding to an A600 of 0.4 to 0.6, were initially diluted 1:10^5 in 10 mM phosphate buffer (Na—P, pH 7.2) or phosphate buffered saline (PBS, pH 7.4) and incubated at 37° C. for 120 min in Na—P or PBS supplemented with different concentrations of peptides. After this period the reaction mixtures were diluted 1:10 and 1:100 in the same buffer and plated on LB-Agar to determine the colony forming units (CFU). The plating were done in triplets. The colonies were counted with a colony counter (Darkfield, Quebec, Canada).
(§2) An example for the depletion of viable bacteria gives FIG. 2 showing that a time dependent killing of the bacteria during incubation occurs. The interpolation of the date gives the following order of sensitivity of the used strains B. subtilis>S. carnosus=S. epidermidis>Rhodotorula >>E. coli>Enterococcus faecium ATCC 35667. The concentration necessary to reduce the colony forming units (CFU) to 50% of the initial CFU ranges from 180 μg/ml (E. faecium) over 20 μg/ml (E. coli, S. carnosus, R. rubra) to 1 μg/ml for B. subtilis indicating a potent inhibitory effect of the used peptide.

[2] = test system: E. coli; assay: Preincubation experiment (determination of CFU); type: cell-based; settings: incubated at 37° C. for 120 min, interpolated from FIG. 3
Procedure: as §1, §2

[3] = test system: Enterococcus faecium ATCC 35667; assay: Preincubation experiment (determination of CFU); type: cell-based; settings: E. faecium; incubated at 37° C. for 120 min; interpolated from FIG. 3
Procedure: as §1, §2

[4] = test system: S. carnosus; assay: Preincubation experiment (determination of CFU); type: cell-based, Staphylococcus carnosus; settings: incubated at 37° C. for 120 min, interpolated from FIG. 3
Procedure: as §1, §2

[5] = test system: R. rubra; assay: Preincubation experiment (determination of CFU); type: cell-based, Rhodotorula rubra; settings: incubated at 37° C. for 120 min, interpolated from FIG. 3
Procedure: as §1, §2

[6] = test system: S. carnosus; type: cell-based, Staphylococcus carnosus
Procedure: To determine the minimal inhibitory concentration of casocidin-I under the influence of the medium strength or in the presence of bivalent cations, a dilution assay was performed in 96-well cell culture clusters. After diluting the peptide in 50 μl medium (tryptic soy broth, Sigma, Germany) with adjusted pH 7.2, ion concentrations or medium strength on one plate, the same amount of medium with appr. 2-4*10^3 bacteria in 50 μl medium were added to the diluted samples. The incubations were done overnight at 37° C. The minimal inhibitory concentration was manually read using a microscope.

[7] = Storage of lyophilized peptide; type: physicochemical; settings: room temperature
[8] = test system: E. coli transformed with the plasmid pUC18; assay: Membrane permeabilization, release of beta-galactosidase and beta-lactamase; type: cell-based; settings: 37° C. for 30 min, FIG. 5
Procedure: The beta-galactosidase indicated the degree of the permeabilization of the inner membrane (IM) of E. coli. The permeabilization of the outer membrane was monitored by determination of released beta-Lactamase (plasmid coded) mainly present in the periplasmatic space.
To measure the relative release of beta-galactosidase a suspension of E. coli grown overnight in LB medium was washed once in phosphate buffer (10 mM, pH 7.0). Afterwards the bacteria were resuspended to a final density of app. 0.5 A600. Peptide fractions were lyophilized in 1.5 ml tubes in a speed vac concentrator and solved in 40 μl phosphate buffer. To the peptide solution a volume of 200 μl bacterial suspension was added and the incubation was performed at 37° C. for 30 min. As a control, to determine the maximum of the enzyme release, bacteria were disrupted by ultrasonic treatment (about 100 joules in 10 sec). […] The absorbance of the samples at 405 nm was measured and the increase of each absorbance was normalized to the sonified sample assuming enzymatic release of 100%.
To detect the release of beta-lactamase the supernatants of E. coli were prepared as described for the beta-galactosi-dase. […] The samples were incubated for 45 min at 37° C. in the dark and the absorbance was measured at a wavelength of 700 nm and the normalization was done with the results gained with sonified samples.

[9] = test system: bacteria; assay: Antibacterial / antimicrobial effect of comparison peptides; type: cell-based

Molecule | concentration necessary to reduce the colony forming units (CFU) to 50% of the initial CFU [1] [µg/mL] | concentration necessary to reduce the colony forming units (CFU) to 50% of the initial CFU [2] [µg/mL] | concentration necessary to reduce the colony forming units (CFU) to 50% of the initial CFU [3] [µg/mL] | concentration necessary to reduce the colony forming units (CFU) to 50% of the initial CFU [4] [µg/mL] | concentration necessary to reduce the colony forming units (CFU) to 50% of the initial CFU [5] [µg/mL] | MIC ([6]; bivalent cation 2.5 mM Ca) | MIC ([6]; bivalent cation 2.5 mM Mn) | MIC ([6]; medium strength 1 (tryptic soy broth, pH 7.2)) | potency when lyophilized, storage [7] | mechanism of action: release of intracellular enzymes beta-galactosidase and beta-lactamase [8] | antibacterial / antimicrobial effect [9]
CC[C@H](C)[C@H](NC(=O)[C@H](CCCCN)NC(=O)[C@H](CCCCN)NC(=O)[C@H](CC(C)C)NC(=O)[C@H](Cc1ccccc1)NC(=O)[C@H](CC(N)=O)NC(=O)[C@H](CC(C)C)NC(=O)[C@H](CCCNC(=N)N)NC(=O)[C@H](CC(N)=O)NC(=O)[C@H](CCCCN)NC(=O)[C@H](CCC(=O)O)NC(=O)[C@H](CCC(=O)O)NC(=O)[C@H](CCC(=O)O)NC(=O)[C@@H](NC(=O)[C@H](CC(C)C)NC(=O)[C@H](CCCCN)NC(=O)[C@@H](NC(=O)[C@@H](N)CCCCN)[C@@H](C)O)[C@@H](C)O)C(=O)N[C@@H](CO)C(=O)N[C@@H](CCC(N)=O)C(=O)N[C@@H](CCCNC(=N)N)C(=O)N[C@@H](Cc1ccc(O)cc1)C(=O)N[C@@H](CCC(N)=O)C(=O)N[C@@H](CCCCN)C(=O)N[C@@H](Cc1ccccc1)C(=O)N[C@@H](C)C(=O)N[C@@H](CC(C)C)C(=O)N1CCC[C@H]1C(=O)N[C@@H](CCC(N)=O)C(=O)N[C@@H](Cc1ccc(O)cc1)C(=O)N[C@@H](CC(C)C)C(=O)N[C@@H](CCCCN)C(=O)N[C@H](C(=O)N[C@H](C(=O)N[C@@H](Cc1ccc(O)cc1)C(=O)N[C@@H](CCC(N)=O)C(=O)N[C@@H](Cc1c[nH]cn1)C(=O)N[C@@H](CCC(N)=O)C(=O)N[C@@H](CCCCN)C(=O)O)C(C)C)[C@@H](C)O [casocidin-I] | 1 | 20 | 180 | 20 | 20 | no | no | no | keeps its potency when lyophilized | membrane permeabilizing effect | 
QRYQ |  |  |  |  |  |  |  |  |  |  | not sufficient to gain antimicrobial properties
